Experimental data taken from patent US6531446B1, “Peptides having biological activity” (Korea Advanced Institute of Science and Technology, priority 1998, dated 2003).
Read-outs that look alike come from different tables or passages of the source. No end group written: not given here.

Experiments:
Type in all cases: cell-based
Bacillus subtilis = test system: Bacillus subtilis
Procedure: (§1) By using the peptides as in Example 1, the minimal inhibitory concentration of the peptides were determined against a variety of microorganisms. Bacteria and fungi were incubated overnight in Mller-Hinton and Saboraud media, respectively, at 37 and 30° C., respectively, and were inoculated in media for 2 hours to a midlogarithmic phase. After diluting the bacteria and fungi to 10^4-10^5 per 1 ml, they were inoculated into a 96-well plate containing serially diluted peptides and incubated for additional 18 hours. The minimal inhibitory concentration was determined at a concentration that inhibits the growth of the microorganisms by measuring the absorbance.

Candida albicans = test system: Candida albicans
Procedure: as §1

Cryptococcus neoformans = test system: Cryptococcus neoformans
Procedure: as §1

Escherichia coli = test system: Escherichia coli
Procedure: as §1

Saccharomyces cerevisiae = test system: Saccharomyces cerevisiae
Procedure: as §1

Salmonella typhimurium = test system: Salmonella typhimurium
Procedure: as §1

Serratia sp. = test system: Serratia sp.
Procedure: as §1

Staphylococcus aureus = test system: Staphylococcus aureus
Procedure: as §1

Streptococcus mutans = test system: Streptococcus mutans
Procedure: as §1

Streptococcus pneumoniae = test system: Streptococcus pneumoniae
Procedure: as §1

Psudomonas putida = assay: Minimal inhibitory concentration, 96-well broth dilution; conditions: Gram-negative; second part of Table 2
Procedure: as §1

[1] = test system: a variety of microorganisms; assay: Estimation of antimicrobial activity, overall statement in words; conditions: result in words
Procedure: as §1

[2] = Gram-positive, second part of Table 2
[3] = Gram-negative, second part of Table 2

Substance | Minimal Inhibitory Concentrations (Bacillus subtilis; [2]) [μg/m] | Minimal Inhibitory Concentrations (Candida albicans; Fungi, second part of Table 2) [μg/m] | Minimal Inhibitory Concentrations (Cryptococcus neoformans; Fungi, second part of Table 2) [μg/m] | Minimal Inhibitory Concentrations (Escherichia coli; [3]) [μg/m] | Minimal Inhibitory Concentrations (Saccharomyces cerevisiae; Fungi, second part of Table 2) [μg/m] | Minimal Inhibitory Concentrations (Salmonella typhimurium; [3]) [μg/m] | Minimal Inhibitory Concentrations (Serratia sp.; [3]) [μg/m] | Minimal Inhibitory Concentrations (Staphylococcus aureus; [2]) [μg/m] | Minimal Inhibitory Concentrations (Streptococcus mutans; [2]) [μg/m] | Minimal Inhibitory Concentrations (Streptococcus pneumoniae; [2]) [μg/m] | Minimal Inhibitory Concentrations (Psudomonas putida) [μg/m] | antimicrobial activity [1] | other results
Arg Ala Gly Leu Gln Phe Pro Val Gly Arg Val His Arg Leu Leu Arg Lys-NH2 (RAGLQFPVGRVHRLLRK-NH2) [Seq No. 16] | 1 | 2 | 1 | 2 | 2 | 2 | 1 | 1 | 0.5 | 1 | 2 | – | –
PVGRVHRLLRK [Seq No. 7] | – | – | – | – | – | – | – | – | – | – | – | strong antimicrobial activity | Minimal Inhibitory Concentrations (Bacillus subtilis; 18 h): 25 µg/mL; Minimal Inhibitory Concentrations (Candida albicans; 18 h): 50 µg/mL; Minimal Inhibitory Concentrations (Cryptococcus neoformans; 18 h): 50 µg/mL; Minimal Inhibitory Concentrations (Escherichia coli; 18 h): 25 µg/mL; Minimal Inhibitory Concentrations (Saccharomyces cerevisiae; 18 h): 50 µg/mL; Minimal Inhibitory Concentrations (Salmonella typhimurium; murium, 18 h): 50 µg/mL; Minimal Inhibitory Concentrations (Serratia sp.; 18 h): 25 µg/mL; Minimal Inhibitory Concentrations (Staphylococcus aureus; 18 h): 50 µg/mL; Minimal Inhibitory Concentrations (Streptococcus mutans; 18 h): 25 µg/mL; Minimal Inhibitory Concentrations (Streptococcus pneumoniae; 18 h): 50 µg/mL
RAGLQFPVGRLLR [Buf(5-13)[RLLR]] | 32 | 32 | 32 | 32 | 32 | 16 | 32 | 64 | 16 | 32 | 32 | – | –
RAGLQFPVGRLLRRLLR [Buf(5-13)[RLLR]2] | 4 | 4 | 4 | 8 | 8 | 4 | 8 | 8 | 16 | 8 | 16 | – | –
RAGLQFPVGRLLRRLLRRLLR [Seq No. 15] | 1 | 2 | 1 | 1 | 4 | 1 | 1 | 1 | 0.5 | 1 | 1 | especially potent antimicrobial activity | –
RKGLQKLVGRVHRLLRK [Seq No. 12] | 18 | 16 | 8 | 18 | 4 | 18 | 4 | 18 | 36 | 18 | 36 | – | –
RLLRRLLRRLLR [(RLLR)3] | 16 | 32 | 32 | 32 | 32 | 16 | 16 | 16 | 16 | 16 | 16 | – | –
RLLRRLLRRLLRRLLR [(RLLR)4] | 2 | 8 | 8 | 2 | 8 | 2 | 1 | 1 | 2 | 2 | 2 | strong antimicrobial activities | –
RLLRRLLRRLLRRLLRRLLR [Seq No. 13] | 2 | 8 | 8 | 2 | 8 | 2 | 1 | 1 | 2 | 2 | 2 | strong antimicrobial activities | –
RVHRLLRRVHRLLRRVHRLLR [Seq No. 14] | 6 | >200 | 100 | 100 | >200 | 50 | 3 | 50 | 25 | 100 | 50 | – | –
